{"source": "patent US5637582A", "about": "“Peripheral circulation improving agent” (priority 1992, dated 1997)", "key": {"femoral artery": {"system": "femoral artery", "assay": "Femoral arterial blood flow, hind leg cooling model of Raynaud's disease (Experimental Example 5)", "format": "in vivo, male SD rat", "experimental": "(Lower limbs peripheral circulation disorder model due to hind leg cooling: Model of Raynaud's disease)\nA catheter was inserted into left common carotid artery of a male SD rat (one group consisting of 5 rats) under anesthesia, and the arterial blood pressure was measured with a standard pressure transducer (manufactured by Nihon Koden. TP-200T, trade name) through a catheter attached to the artery. After isolating the left femoral artery from the peripheral connective tissue, a flow probe (HDP 10-20R: F 1.0 mm) of a Doppler blood flow meter (manufactured by Crystal Biotec Co., PD20, trade name) was attached thereto and was connected to the Doppler blood flow meter to measure the artery blood flow. After the operation, at the time that the state became stable, the left hind leg was exposed to a perfused solution at 10° C. to decrease the femoral arterial blood flow. After 30 minutes, 1 ml/kg of a 0.9% NaCl solution or 300 μg/kg of the test compound A was intravenously administered and the state was observed. In the case of Beraprost Na, continuous injection in an amount of […] was carried out after 30 minutes from cooling. The compounds to be used were each dissolved in a 0.9% NaCl solution.\nThe present model is disclosed, for example, in Nishio et al, \"Effect of Beraprost Sodium on Peripheral Circulatory Disturbances Induced by Various Stimuli\", Arzneim.-Forsch./Drug Res., 39 (II), Nr. 10 (1989), pp. 1229-1234. Note particularly the section \"2.4. Sphygmometry in rat hind paw\", at page 1230."}, "arterial blood pressure": {"system": "arterial blood pressure", "set-up": "species or system male SD rat", "settings": "rat, in vivo", "experimental": "(Lower limbs peripheral circulation disorder model due to hind leg cooling: Model of Raynaud's disease) […] TP-200T, trade name) through a catheter attached to the artery. […] After the operation, at the time that the state became stable, the left hind leg was exposed to a perfused solution at 10° C. to decrease the femoral arterial blood flow. […] In the case of Beraprost Na, continuous injection in an amount of […] was carried out after 30 minutes from cooling. […] The present model is disclosed, for example, in Nishio et al, \"Effect of Beraprost Sodium on Peripheral Circulatory Disturbances Induced by Various Stimuli\", Arzneim.-Forsch./Drug Res., 39 (II), Nr. 10 (1989), pp. 1229-1234. Note particularly the section \"2.4. Sphygmometry in rat hind paw\", at page 1230."}}, "data": [{"compound": "CC#CCC(C)[C@H](O)/C=C/[C@@H]1[C@H]2c3cccc(CCCC(=O)O)c3O[C@H]2C[C@H]1O", "note": "(some centres unmarked) [Compound J, Beraprost Na, reference compound]", "values": [{"measurement": "Femoral Arterial Blood Flow change", "setting": "femoral artery; 0 min (before cooling and administration; 30 min = 0)", "result": "1.116 Δ ml/min"}, {"measurement": "Femoral Arterial Blood Flow change", "setting": "femoral artery; 40 min, given at 30 min: A 300 μg/kg i.v., J 0.3 μg/kg/ml continuous injection", "result": "0.252 Δ ml/min"}, {"measurement": "Femoral Arterial Blood Flow change", "setting": "femoral artery; 50 min, given at 30 min: A 300 μg/kg i.v., J 0.3 μg/kg/ml continuous injection", "result": "0.304 Δ ml/min"}, {"measurement": "Femoral Arterial Blood Flow change", "setting": "femoral artery; 60 min, given at 30 min: A 300 μg/kg i.v., J 0.3 μg/kg/ml continuous injection", "result": "0.368 Δ ml/min"}, {"measurement": "Femoral Arterial Blood Flow change", "setting": "femoral artery; 70 min, given at 30 min: A 300 μg/kg i.v., J 0.3 μg/kg/ml continuous injection", "result": "0.436 Δ ml/min"}, {"measurement": "Femoral Arterial Blood Flow change", "setting": "femoral artery; 80 min, given at 30 min: A 300 μg/kg i.v., J 0.3 μg/kg/ml continuous injection", "result": "0.372 Δ ml/min"}, {"measurement": "Femoral Arterial Blood Flow change", "setting": "femoral artery; 90 min, given at 30 min: A 300 μg/kg i.v., J 0.3 μg/kg/ml continuous injection", "result": "0.344 Δ ml/min"}, {"measurement": "Mean Arterial Pressure change", "setting": "arterial blood pressure", "result": "1.20 Δ mmHg"}]}]}
